The text below walks through data of publication PMC9572397, “Garcinia cambogia Phenolics as Potent Anti-COVID-19 Agents: Phytochemical Profiling, Biological Activities, and Molecular Docking” (Plants, 2022).

In this test the target is SARS-CoV-2 3CL Protease (Severe acute respiratory syndrome coronavirus 2, UniProt P0DTD1). The test can be described thus: 3CL protease SARS-CoV-2 activity (M^Pro assay), fluorescence kit. The class given is biochemical. The settings on record: for Kinetic Activity: positive control 120; for ∆RFU: ∆T 30, positive control 100.

`O=c1cc(-c2ccc(O)cc2)oc2c([C@@H]3O[C@H](CO)[C@@H](O)[C@H](O)[C@H]3O)c(O)cc(O)c12` [Compound 3, vitexin] showed an IC50 of 231 µM. For the setting “Conc. 0.1”, the “Kinetic Activity” value came to 117.109 and the “∆RFU” value is listed as 97.59. In addition, under “Conc. 1”, the “Kinetic Activity” value was determined as 110.257 and the “∆RFU” value was 91.88. Where the note is “Conc. 10”, the “Kinetic Activity” value amounted to 99.133 and the “∆RFU” value was 82.61. In addition, where the note is “Conc. 100”, the “Kinetic Activity” value is 46.7405 and the “∆RFU” value was 38.95.
`O=C(O)/C=C/c1ccc(O)cc1` [Compound 7, p-coumaric acid] showed an IC50 of 471 µM. Under “Conc. 0.1”, the “Kinetic Activity” value was determined as 118.477 and the “∆RFU” value is 98.73. For the same compound, for the setting “Conc. 1”, the “Kinetic Activity” value was determined as 113.905 and the “∆RFU” value stood at 94.92. For the same compound, under “Conc. 10”, the “Kinetic Activity” value is recorded as 100.333 and the “∆RFU” value amounted to 83.61. For the setting “Conc. 100”, the “Kinetic Activity” value is reported as 42.0724 and the “∆RFU” value worked out at 35.06.
Turning to `Oc1cc(O)c2c(c1)O[C@H](c1ccc(O)c(O)c1)[C@@H](O)C2` [Compound 6, catechin], 90.3 µM corresponded to half-maximal inhibition (IC50). Further, for the setting “Conc. 0.1”, the “Kinetic Activity” value was found to be 113.953 and the “∆RFU” value worked out at 94.96. For the setting “Conc. 1”, the “Kinetic Activity” value amounted to 107.173 and the “∆RFU” value is 89.31. In addition, where the note is “Conc. 10”, the “Kinetic Activity” value is 83.2328 and the “∆RFU” value is 69.36. In addition, under “Conc. 100”, the “Kinetic Activity” value is reported as 33.3003 and the “∆RFU” value was 27.75.
`CC1=CC(=O)c2c(O)cccc2C1=O` [Plumbagin, reference compound]: the half-maximal inhibitory concentration (IC50) was 87.6 µM. Under “Conc. 0.1”, the “Kinetic Activity” value was 115.069 and the “∆RFU” value turned out to be 95.89. Under “Conc. 1”, the “Kinetic Activity” value is 102.853 and the “∆RFU” value stood at 85.71. Besides, for the setting “Conc. 10”, the “Kinetic Activity” value worked out at 77.9528 and the “∆RFU” value stood at 64.96. For the same compound, under “Conc. 100”, the “Kinetic Activity” value was 27.0243 and the “∆RFU” value was 22.52.
For `C[C@@H]1O[C@@H](OC[C@H]2O[C@@H](Oc3c(-c4ccc(O)c(O)c4)oc4cc(O)cc(O)c4c3=O)[C@H](O)[C@@H](O)[C@@H]2O)[C@H](O)[C@H](O)[C@H]1O` [Compound 4, rutin], the “Kinetic Activity” value (Conc. 0.1) is listed as 116.077, the “Kinetic Activity” value (Conc. 1) is given as 110.065, the “Kinetic Activity” value (Conc. 10) was found to be 92.9049 and the “Kinetic Activity” value (Conc. 100) stood at 32.3043. Besides, the “∆RFU” value is, setting by setting: (Conc. 0.1) 96.73; (Conc. 1) 91.72; (Conc. 10) 77.42; (Conc. 100) 26.92.
`C[C@@H]1O[C@@H](O[C@H]2[C@H](Oc3cc(O)c4c(c3)O[C@H](c3ccc(O)cc3)CC4=O)O[C@H](CO)[C@@H](O)[C@@H]2O)[C@H](O)[C@H](O)[C@H]1O` [Compound 5, naringin] had an IC50 of 28.6 µM. Further, for the setting “Conc. 0.1”, the “Kinetic Activity” value is reported as 117.637 and the “∆RFU” value was 98.03. Moreover, for the setting “Conc. 1”, the “Kinetic Activity” value is given as 101.965 and the “∆RFU” value came out at 84.97. Besides, where the note is “Conc. 10”, the “Kinetic Activity” value stood at 80.2328 and the “∆RFU” value is recorded as 66.86. In addition, under “Conc. 100”, the “Kinetic Activity” value was found to be 25.8243 and the “∆RFU” value amounted to 21.52. Further, the “reduction of the protease activity (in words)” value (final concentration of 50 μM, compared to the plumbagin positive standard) is “significant reduction”.
`O=C(O)c1cc(O)c(O)c(O)c1` [Compound 8, gallic acid] had a 50% inhibitory concentration (IC50) of 178 µM. Besides, under “Conc. 0.1”, the “Kinetic Activity” value amounted to 117.505 and the “∆RFU” value amounted to 97.92. Besides, where the note is “Conc. 1”, the “Kinetic Activity” value worked out at 109.237 and the “∆RFU” value was determined as 91.03. Also, where the note is “Conc. 10”, the “Kinetic Activity” value came to 93.0969 and the “∆RFU” value was found to be 77.58. Further, for the setting “Conc. 100”, the “Kinetic Activity” value turned out to be 29.8323 and the “∆RFU” value is 24.86.
Take `O=c1cc(-c2ccc(O)c(-c3c(O)cc(O)c4c(=O)cc(-c5ccc(O)cc5)oc34)c2)oc2cc(O)cc(O)c12` [Compound 2, amentoflavone]: 136 µM corresponded to half-maximal inhibition (IC50). Where the note is “Conc. 0.1”, the “Kinetic Activity” value was determined as 117.505 and the “∆RFU” value came out at 97.92. Also, under “Conc. 1”, the “Kinetic Activity” value is 112.981 and the “∆RFU” value came out at 94.15. Where the note is “Conc. 10”, the “Kinetic Activity” value is 94.7529 and the “∆RFU” value is reported as 78.96. Further, where the note is “Conc. 100”, the “Kinetic Activity” value is reported as 44.4244 and the “∆RFU” value is 37.02.
